Experimental data from patent US9018208B2, “Heterocycles as potassium channel modulators” (Icagen Inc., priority 2007, dated 2015).

test system: SH-SY5Y M-currents (KCNQ2, KCNQ3 and KCNQ5); test: SH-SY5Y native cell line FLIPR assay (voltage-sensitive dye DiBAC); type: cell-based, mouse neuroblastoma, rat glioma hybrid cell line; details: FLIPR assay, SH-SY5Y native cell line; Table 2; read-out: SH-SY5Y EC50
Summary of the method: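 Response is peak DiBAC fluorescence change, normalised to the maximum from a positive control agent, sampled every 30 s over 25 min. Before compound addition, SH-SY5Y cells differentiated with PGE1 plus isomethylbutylxanthine were dye-loaded for 1 h in EBSS with […] DiBAC.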

`O=C(Cc1ccccc1)Nc1nc2ccc(F)cn2c1-c1cccc(C(F)(F)F)c1` [Compound 165, N-(6-fluoro-3-(3-(trifluoromethyl)phenyl)imidazo[1,2-a]pyridin-2-yl)-2-phenylacetamide] and `O=C(Cc1ccc(F)cc1)Nc1nc2ccc(F)cn2c1-c1cccc(OC(F)(F)F)c1` [Compound 183, N-(6-fluoro-3-(3-(trifluoromethoxy)phenyl)imidazo[1,2-a]pyridin-2-yl)-2-(4-fluorophenyl) acetamide] cannot be ordered by EC50: under 500 nM for the first, under 500 nM for the second.

`Cc1ccc2nc(NC(=O)Cc3ccccc3)c(-c3ccc(F)cc3)n2c1` [Compound 166, N-(3-(4-fluorophenyl)-6-methylimidazo[1,2-a]pyridin-2-yl)-2-phenylacetamide] and `Cc1ccn2c(-c3ccc(F)cc3)c(NC(=O)Cc3ccccc3)nc2c1` [Compound 168, N-(3-(4-fluorophenyl)-7-methylimidazo[1,2-a]pyridin-2-yl)-2-phenylacetamide] cannot be ordered by EC50: under 500 nM for the first, under 500 nM for the second.

`Cc1ccc2nc(NC(=O)CC(C)(C)C)c(-c3ccc(F)cc3)n2c1` [Compound 167, N-(3-(4-fluorophenyl)-6-methylimidazo[1,2-a]pyridin-2-yl)-3,3-dimethylbutanamide] and `Cc1ccn2c(-c3ccc(F)cc3)c(NC(=O)CC(C)(C)C)nc2c1` [Compound 169, N-(3-(4-fluorophenyl)-7-methylimidazo[1,2-a]pyridin-2-yl)-3,3-dimethylbutanamide] cannot be ordered by EC50: under 500 nM for the first, under 500 nM for the second.

`O=C(CC1CCCC1)Nc1nc2ccc(F)cn2c1-c1ccc(OC(F)(F)F)cc1` [Compound 170, 2-cyclopentyl-N-(6-fluoro-3-(4-(trifluoromethoxy)phenyl)imidazo[1,2-a]pyridin-2-yl)acetamide] and `O=C(CC1CCC1)Nc1nc2ccc(F)cn2c1-c1ccc(OC(F)(F)F)cc1` [Compound 194, 2-cyclobutyl-N-(6-fluoro-3-(4-(trifluoromethoxy)phenyl)imidazo[1,2-a]pyridin-2-yl)acetamide] cannot be ordered by EC50: under 500 nM for the first, under 500 nM for the second.

`O=C(CC1CC1)Nc1nc2ccc(F)cn2c1-c1ccc(OC(F)(F)F)cc1` [Compound 171, 2-cyclopropyl-N-(6-fluoro-3-(4-(trifluoromethoxy)phenyl)imidazo[1,2-a]pyridin-2-yl)acetamide] and `O=C(CCC1CC1)Nc1nc2ccc(F)cn2c1-c1ccc(OC(F)(F)F)cc1` [Compound 172, 3-cyclopropyl-N-(6-fluoro-3-(4-(trifluoromethoxy)phenyl)imidazo[1,2-a]pyridin-2-yl)propanamide] fall in the same range of EC50: 500 to 3000 nM for the first, 500 to 3000 nM for the second.

First: O=C(CCC(F)(F)F)Nc1nc2ccc(F)cn2c1-c1ccc(OC(F)(F)F)cc1 [Compound 173, 4,4,4-trifluoro-N-(6-fluoro-3-(4-(trifluoromethoxy)phenyl)imidazo[1,2-a]pyridin-2-yl)butanamide]
Second: O=C(CCCC(F)(F)F)Nc1nc2ccc(F)cn2c1-c1ccc(OC(F)(F)F)cc1 [Compound 174, 5,5,5-trifluoro-N-(6-fluoro-3-(4-(trifluoromethoxy)phenyl)imidazo[1,2-a]pyridin-2-yl)pentanamide]
The EC50 of the first is higher: 500 to 3000 nM for the first, under 500 nM for the second. The second is the more potent here.

`CC(C)(C)CC(=O)Nc1nc2ccc(F)cn2c1-c1ccc(C(C)(C)C#N)cc1` [Compound 175, N-(3-(4-(2-cyanopropan-2-yl)phenyl)-6-fluoroimidazo[1,2-a]pyridin-2-yl)-3,3-dimethylbutanamide] and `CC(C)(C)CC(=O)Nc1nc2ccc(F)cn2c1-c1cccc(C(C)(C)C#N)c1` [Compound 176, N-(3-(3-(2-cyanopropan-2-yl)phenyl)-6-fluoroimidazo[1,2-a]pyridin-2-yl)-3,3-dimethylbutanamide] fall in the same range of EC50: 500 to 3000 nM for the first, 500 to 3000 nM for the second.

`CC(C)(C)CC(=O)Nc1nc2ccc(F)cn2c1-c1ccc(C#N)cc1` [Compound 177, N-(3-(4-cyanophenyl)-6-fluoroimidazo[1,2-a]pyridin-2-yl)-3,3-dimethylbutanamide] and `CC(C)(C)CC(=O)Nc1nc2ccc(F)cn2c1-c1ccc(C#N)c(F)c1` [Compound 197, N-(3-(4-cyano-3-fluorophenyl)-6-fluoroimidazo[1,2-a]pyridin-2-yl)-3,3-dimethylbutanamide] fall in the same range of EC50: 500 to 3000 nM for the first, 500 to 3000 nM for the second.

Compared with `CC(C)(C)CC(=O)Nc1nc2ccc(C(F)(F)F)cn2c1-c1ccc(OC(F)(F)F)cc1` [Compound 178, 3,3-dimethyl-N-(3-(4-(trifluoromethoxy)phenyl)-6-(trifluoromethyl)imidazo[1,2-a]pyridin-2-yl)butanamide], `CC(C)(CO)CC(=O)Nc1nc2ccc(F)cn2c1-c1ccc(OC(F)(F)F)cc1` [Compound 192, N-(6-fluoro-3-(4-(trifluoromethoxy)phenyl)imidazo[1,2-a]pyridin-2-yl)-4-hydroxy-3,3-dimethylbutanamide] is higher in EC50: under 500 nM for the first, 500 to 3000 nM for the second.

`CC1(CC(=O)Nc2nc3ccc(F)cn3c2-c2ccc(F)cc2)CCCC1` [Compound 179, N-(6-fluoro-3-(4-fluorophenyl)imidazo[1,2-a]pyridin-2-yl)-2-(1-methylcyclopentyl)acetamide] and `CC1(CC(=O)Nc2nc3ccc(F)cn3c2-c2ccc(OC(F)(F)F)cc2)CCCC1` [Compound 193, N-(6-fluoro-3-(4-(trifluoromethoxy)phenyl)imidazo[1,2-a]pyridin-2-yl)-2-(1-methylcyclopentyl)acetamide] cannot be ordered by EC50: under 500 nM for the first, under 500 nM for the second.

`CC(C)(C)C(O)C(=O)Nc1nc2ccc(F)cn2c1-c1ccc(C(F)(F)F)cc1` (stereo not shown) [Compound 181, N-(6-fluoro-3-(4-(trifluoromethyl)phenyl)imidazo[1,2-a]pyridin-2-yl)-2-hydroxy-3,3-dimethylbutanamide] and `CC(C)C(C)C(=O)Nc1nc2ccc(F)cn2c1-c1ccc(C(F)(F)F)cc1` (stereo not shown) [Compound 184, N-(6-fluoro-3-(4-(trifluoromethyl)phenyl)imidazo[1,2-a]pyridin-2-yl)-2,3-dimethylbutanamide] fall in the same range of EC50: 500 to 3000 nM for the first, 500 to 3000 nM for the second.

`CC(C)(C)CC(=O)Nc1nc2ccc(F)cn2c1-c1cccc(OC(F)(F)F)c1` [Compound 182, N-(6-fluoro-3-(3-(trifluoromethoxy)phenyl)imidazo[1,2-a]pyridin-2-yl)-3,3 dimethylbutanamide] and `CC(C)(C)CC(=O)Nc1nc2ccc(F)cn2c1-c1ccc(C(F)(F)F)c(F)c1` [Compound 199, N-(6-fluoro-3-(3-fluoro-4-(trifluoromethyl)phenyl)imidazo[1,2-a]pyridin-2-yl)-3,3-dimethylbutanamide] cannot be ordered by EC50: under 500 nM for the first, under 500 nM for the second.

`O=C(CC1CCC1)Nc1nc2ccc(F)cn2c1-c1ccc(C(F)(F)F)cc1` [Compound 185, 2-cyclobutyl-N-(6-fluoro-3-(4-(trifluoromethyl)phenyl)imidazo[1,2-a]pyridin-2-yl)acetamide] and `CC(C)(C)CCC(=O)Nc1nc2ccc(F)cn2c1-c1ccc(C(F)(F)F)cc1` [Compound 188, N-(6-fluoro-3-(4-(trifluoromethyl)phenyl)imidazo[1,2-a]pyridin-2-yl)-4,4-dimethylpentanamide] cannot be ordered by EC50: under 500 nM for the first, under 500 nM for the second.

`Cc1ccc2nc(NC(=O)Cc3ccc(C(F)(F)F)cc3)c(-c3ccc(F)cc3)n2c1` [Compound 186, N-(3-(4-fluorophenyl)-6-methylimidazo[1,2-a]pyridin-2-yl)-2-(4-(trifluoromethyl)phenyl)acetamide] and `Cc1ccn2c(-c3ccc(F)cc3)c(NC(=O)Cc3ccc(C(F)(F)F)cc3)nc2c1` [Compound 187, N-(3-(4-fluorophenyl)-7-methylimidazo[1,2-a]pyridin-2-yl)-2-(4-(trifluoromethyl)phenyl)acetamide] cannot be ordered by EC50: under 500 nM for the first, under 500 nM for the second.

`CC(=O)OCC(C)(C)CC(=O)Nc1nc2ccc(F)cn2c1-c1ccc(C(F)(F)F)cc1` [Compound 189, 4-(6-fluoro-3-(4-(trifluoromethyl)phenyl)imidazo[1,2-a]pyridin-2-ylamino)-2,2-dimethyl-4-oxobutyl acetate] and `CC(=O)OCC(C)(C)CC(=O)Nc1nc2ccc(F)cn2c1-c1ccc(OC(F)(F)F)cc1` [Compound 191, 4-(6-fluoro-3-(4-(trifluoromethoxy)phenyl)imidazo[1,2-a]pyridin-2-ylamino)-2,2-dimethyl-4-oxobutyl acetate] fall in the same range of EC50: 3000 to 10000 nM for the first, 3000 to 10000 nM for the second.

First: CC(C)(CO)CC(=O)Nc1nc2ccc(F)cn2c1-c1ccc(C(F)(F)F)cc1 [Compound 190, N-(6-fluoro-3-(4-(trifluoromethyl)phenyl)imidazo[1,2-a]pyridin-2-yl)-4-hydroxy-3,3-dimethylbutanamide]
Second: CC(C)(C)C(F)(F)C(=O)Nc1nc2ccc(F)cn2c1-c1ccc(C(F)(F)F)cc1 [Compound 202, 2,2-difluoro-N-(6-fluoro-3-(4-(trifluoromethyl)phenyl)imidazo[1,2-a]pyridin-2-yl)-3,3-dimethylbutanamide]
The EC50 of the first is higher: 3000 to 10000 nM for the first, under 500 nM for the second.

`CC(CC(=O)Nc1nc2ccc(F)cn2c1-c1ccc(OC(F)(F)F)cc1)C(F)(F)F` (stereo not shown) [Compound 195, 4,4,4-trifluoro-N-(6-fluoro-3-(4-(trifluoromethoxy)phenyl)imidazo[1,2-a]pyridin-2-yl)-3-methylbutanamide] and `COc1ccc(-c2c(NC(=O)CC(C)(C)C)nc3ccc(F)cn23)cc1C(F)(F)F` [Compound 200, N-(6-fluoro-3-(4-methoxy-3-(trifluoromethyl)phenyl)imidazo[1,2-a]pyridin-2-yl)-3,3-dimethylbutanamide] cannot be ordered by EC50: under 500 nM for the first, under 500 nM for the second.

`CC(C)(C)CC(=O)Nc1nc2ccc(F)cn2c1-c1ccc(F)c(C(F)F)c1` [Compound 196, N-(3-(3-(difluoromethyl)-4-fluorophenyl)-6-fluoroimidazo[1,2-a]pyridin-2-yl)-3,3-dimethylbutanamide] and `Cc1ccc(-c2c(NC(=O)CC(C)(C)C)nc3ccc(F)cn23)cc1F` [Compound 201, N-(6-fluoro-3-(3-fluoro-4-methylphenyl)imidazo[1,2-a]pyridin-2-yl)-3,3-dimethylbutanamide] cannot be ordered by EC50: under 500 nM for the first, under 500 nM for the second.

`O=C(Cc1ccc(F)cc1)Nc1nc2ccccn2c1-c1ccc(F)cc1` [Compound 203, 2-(4-fluorophenyl)-N-(3-(4-fluorophenyl)imidazo[1,2-a]pyridin-2-yl)acetamide] was tested, and the EC50 was 500 to 3000 nM.
